Laboratory results from paper PMC6312923 (Life Science Alliance, 2018).

Assays:
[1] = system: Cdt1; experiment: Co-immunoprecipitation of Cdt1 with FLAG-tagged Cdt2; assay type: cell-based, human; conditions: anti-FLAG IP, HEK293, with or without UV irradiation
Source text: Figure 3. […] HEK293 cells were transfected with plasmids expressing the indicated Cdt2 fused to a C-terminal FLAG tag, cross-linked, and precipitated with anti-FLAG antibodies (arrows). […] The bands in the blank lanes for Cul4A blotting correspond to the cross-reacting bands to pre-stained marker. […] HEK293 cells were transfected with the indicated plasmids and treated as in A. * indicates nonspecific bands derived from IgGs. (C) A schematic drawing of the Cdt2 domain structure highlighting the C-terminal PIP box and a sequence alignment of PIP boxes in various organisms. The alanine-changed PIP box mutant of Cdt2 was shown (PIP-3A) together with Cdt1 PIP box. (D) HEK293 cells were transfected with Cdt2^WT or PIP box mutant (Cdt2^PIP-3A) C-terminally fused to a FLAG tag, treated as in B, and Cdt2 was precipitated with anti-FLAG resin.
Next, we examined the interaction of CRL4^Cdt2 ligase with its target protein Cdt1, using HEK293 cells alone and cells transfected with Cdt2^WT or Cdt2^PIP-3A, with or without UV irradiation. […]

[2] = system: HEK293 cells, PCNA foci; experiment: Co-localization of Cdt2 with PCNA foci (S phase) in HEK293 cells; assay type: cell-based, human; conditions: stable HEK293, asynchronous, pre-extracted
Source text: XPA, a component of nucleotide excision repair, staining was used to confirm that similar extents of DNA damage were induced both in Cdt2^WT- and Cdt2^PIP-3A-expressing cells. […] A similar percentage of PCNA-positive S-phase cells was detected both in Cdt2^1–730/WT-expressing cells and Cdt2^PIP-3A-expressing cells (Fig S6). […] More than 80% of PCNA-positive cells were co-stained with Cdt2^WT, with the early S-phase cells displaying stronger Cdt2^WT staining than the late S-phase cells as reported ([Nukina et al, 2018]) (Figs 6B and C, and S6A).
Figure 6. The Cdt2 PIP box is important for its recruitment to DNA damage sites and replication foci and for poly-ubiquitination activity. (A) HEK293 and stable Cdt2^WT or Cdt2^PIP-3A cells were locally UV irradiated, and stained for XPA and FLAG (Cdt2). XPA-positive spots were examined for FLAG signal, and its frequency was counted (%). More than 50 spots were examined. bar:10 μm. […] Bar: 10 μm. […] (D) Whole-cell extracts were prepared from HEK293 and stably transfected cells of Cdt2^WT or Cdt2^PIP-3A cells, separated into soluble (Sup) and chromatin-containing insoluble (Ppt) fractions, and were examined for indicated proteins. The asterisk indicates nonspecific bands. […]
For Western blotting, whole-cell lysates were prepared by lysing cell pellets directly in SDS–PAGE buffer. […] Protein levels were analysed by ImageJ software.

Molecule: Cdt2: Cdt2 tagged with GFP, transiently expressed in MCF7 cells
- co-precipitation of PCNA and Cdt1 [1]: both PCNA and Cdt1 were precipitated, and their amounts were notably increased after UV irradiation
- PCNA-positive cells co-stained with Cdt2 [2]: More than 80%

B1: Cdt2^PIP-3A: Cdt2 with I709, Y712, and F713 all mutated to alanine (protein, UniProt Q9NZJ0 1-730, looked up, variant I709A Y712A F713A)
Denticleless protein homolog: MLFNSVLRQPQLGVLRNGWSSQYPLQSLLTGYQCSGNDEHTSYGETGVPVPPFGCTFSSAPNMEHVLAVANEEGFVRLYNTESQSFRKKCFKEWMAHWNAVFDLAWVPGELKLVTAAGDQTAKFWDVKAGELIGTCKGHQCSLKSVAFSKFEKAVFCTGGRDGNIMVWDTRCNKKDGFYRQVNQISGAHNTSDKQTPSKPKKKQNSKGLAPSVDFQQSVTVVLFQDENTLVSAGAVDGIIKVWDLRKNYTAYRQEPIASKSFLYPGSSTRKLGYSSLILDSTGSTLFANCTDDNIYMFNMTGLKTSPVAIFNGHQNSTFYVKSSLSPDDQFLVSGSSDEAAYIWKVSTPWQPPTVLLGHSQEVTSVCWCPSDFTKIATCSDDNTLKIWRLNRGLEEKPGGDKLSTVGWASQKKKESRPGLVTVTSSQSTPAKAPRAKCNPSNSSPSSAACAPSCAGDLPLPSNTPTFSIKTSPAKARSPINRRGSVSSVSPKPPSSFKMSIRNWVTRTPSSSPPITPPASETKIMSPRKALIPVSQKSSQAEACSESRNRVKRRLDSSCLESVKQKCVKSCNCVTELDGQVENLHLDLCCLAGNQEDLSKDSLGPTKSSKIEGAGTSISEPPSPISPYASESCGTLPLPLRPCGEGSEMVGKENSSPENKNWLLAMAAKRKAENPSPRSPSSQTPNSRRQSGKKLPSPVTITPSSMRKACTAAHRKSQEDFCGPEHSTEL
modifications: FLAG tag
notes: Cdt2 with I709, Y712, and F713 all mutated to alanine
- co-precipitation of PCNA and Cdt1 [1]: neither Cdt1 nor PCNA co-precipitated well
- Cdt2 signal in PCNA foci [2]: almost no signal was detected
